Measurements reported in US20260294922A1, “Inhibitors of JUN N-Terminal Kinases (JNK1, JNK2, and/or JNK3) and Mitogen-Activated Protein Kinases (MAPK8, MAPK9, and/or MAPK10) and Methods of Using Same” (Baylor College of Medicine, priority 2023, published 2026).
Converted amounts (≈) assume the structure as drawn. “Also recorded” adds a separate entry of the source. Where two headings read alike, the source gives them in different places.

Experiments:
JNK1 [1] = biological target: T1, JNK1 (Homo sapiens, UniProt P45983); assay: JNK1 biochemical assay (piperazine series)
Description: FIG. 21B depicts concentration-dependent inhibition of JNK1 with CDD-1722 and CDD-1723. Components of CDD-1722 and CD-1723 represent alternative building blocks which may be incorporated during optimization of pharmaceutical properties of JNK-I.

JNK3 [2] = biological target: T2, JNK3 (Homo sapiens, UniProt P53779); assay: Promega NanoBRET intracellular target engagement (tracer K10 displacement), JNK3; assay type: cell-based
JNK1 [3] = biological target: T1, JNK1; assay: Promega NanoBRET intracellular target engagement (tracer K10 displacement), JNK1; assay type: cell-based
JNK2 [4] = biological target: T3, JNK2 (Homo sapiens, UniProt P45984); assay: Promega NanoBRET intracellular target engagement (tracer K10 displacement), JNK2; assay type: cell-based
[5] = cited from earlier work; for clinical safety: Phase 1 volunteers / IPF
Other MAPK = assay: Eurofins KdSelect, other MAPK; assay type: binding; settings: Table 2; IC50 nM; read-out: Other MAPK, based on Kd select results
Description: The next step was to confirm that the compounds that bound to JNK1, JNK2 or JNK3 in a competitive manner, relative to bentamapimod, were inhibitors of the ATP-dependent kinase activity in assays. In many cases, the results have been replicated at ThermoFisher using their SelectScreen technology platform. Based on knowledge about JNK inhibitors, and the results of DEC-Tec selections, a target compound profile was developed (Table 2).
The efficacy and selectivity of BEND and TANZ were used to define a realistic preliminary target compound profile (Table 2) for the next generation of JNK1-3 inhibitors for the treatment of endometriosis.

[6] = tested on: immortalized human endometriotic epithelial cells (iHEEC); assay: Phosphorylation of JNK and Jun in iHEEC; assay type: cell-based
Description: FIG. 26A depicts the effects of CDD-2728 and CDD-3013 on phosphorylation of the JNK enzyme itself (i.e., representing MEK4 inhibition) and phosphorylation of pSer63 and pSer73 on the transcription factor Jun in immortalized human endometriotic epithelial cells (iHEEC). The HEEC cells are a well characterized cell line that are relevant for the evaluation of inflammatory endpoints and measures of epithelial-to-mesenchymal transitions (EMT). […] This is consistent with the potency relationships of CDD-2728 relative to bentamapimod observed in cytokine gene expression described above in iHEEC cells and primary human stromal endometriotic cells. […] SP600125 has been frequently described as a poorly-selective JNK-I but in this context provides additional confirmation of inhibition of the JNK target kinase for CDD-2728. […] This adds further support to the critical role of JNK-1 to the therapeutic effect of the JNK inhibitors of the disclosure.

LATS1 [7] = biological target: T4, LATS1 (Homo sapiens, UniProt O95835); assay: KINOMEscan, LATS1; assay type: binding; settings: 1 μM
LATS1 [8] = biological target: T4, LATS1; assay: ThermoFisher Z'Lyte assay, LATS1; assay type: biochemical
Description: Inhibition of LATS1 was not confirmed in a subsequent ThermoFisher Z'Lyte assay.

JNK3 [9] = biological target: T2, JNK3; assay: JNK3 kinase (intrinsic ATPase, Kinase-Glo) assay; assay type: biochemical
[10] = In vitro metabolism in mouse liver microsomes; settings: mouse, microsomes
Procedure: (§1) The target product profile seeks to deliver JNK inhibitor as a once daily oral administration. To prioritize compounds for further development, in vitro metabolism of several CDD JNK inhibitors were determined to approximate the plasma half-life and the rate of metabolism of the compounds in vivo.

HepG2 cells = assay: HepG2 cell viability (ATP consumption); settings: CDD-2575 25 μM; CDD-2728, CDD-2624 up to 75
Procedure: This assay reflects cell viability. […] To determine if the responses observed in endometriotic epithelial cells and endometriotic stromal cell cultures were cytotoxic, cell viability was performed in HepG2 cells.

[11] = In vitro metabolism in human liver microsomes; settings: human, microsomes
Procedure: as §1

JNK1 [12] = biological target: T1, JNK1; assay: JNK1 kinase (intrinsic ATPase, Kinase-Glo) assay; assay type: biochemical
Method in brief: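 Full-length construct not stated; kinases hydrolyse ATP without peptide substrate, reaction run 30 or 60 min at 30° C, remaining ATP read by Kinase-Glo luminescence with no-kinase controls. Apparent Ki from normalized fractional activities fitted to modified Morrison tight-binding equation; orthogonal LanthaScreen binding assay gave IC50.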

JNK2 [13] = biological target: T3, JNK2; assay: JNK2 kinase (intrinsic ATPase, Kinase-Glo) assay; assay type: biochemical
JNK3 [14] = biological target: T2, JNK3; assay: ThermoFisher SelectScreen, JNK3; assay type: binding
MEK5 = biological target: T5, MEK5 (Homo sapiens, UniProt Q13163); assay: ThermoFisher SelectScreen, MEK5; assay type: binding; settings: Table 4
T5 construct: purchased ThermoFisher (SelectScreen, outsourced service)
T5 sequence (Q13163 1-448): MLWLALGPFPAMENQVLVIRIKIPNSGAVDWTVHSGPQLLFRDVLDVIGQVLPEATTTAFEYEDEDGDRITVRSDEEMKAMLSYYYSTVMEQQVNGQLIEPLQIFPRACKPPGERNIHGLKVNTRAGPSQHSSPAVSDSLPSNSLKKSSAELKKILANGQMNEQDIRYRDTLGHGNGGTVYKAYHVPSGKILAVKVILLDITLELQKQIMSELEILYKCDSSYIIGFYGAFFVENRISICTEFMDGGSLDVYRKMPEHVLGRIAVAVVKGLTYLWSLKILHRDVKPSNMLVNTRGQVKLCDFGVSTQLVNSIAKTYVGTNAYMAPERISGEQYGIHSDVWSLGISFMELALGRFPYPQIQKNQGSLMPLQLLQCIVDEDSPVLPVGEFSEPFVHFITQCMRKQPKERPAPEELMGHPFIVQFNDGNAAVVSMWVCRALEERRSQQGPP
Procedure: (§2) To mitigate violation of the linear initial velocity principle, which is a problem in end-point assays when doing dose-responses, the enzyme concentration was carefully optimized, in a total assay volume of 25 μL. The assay was performed using 10 μM ATP, 0.02% Tween-20, kinase buffer from Cell Signaling (#9802) in white 384-well plates. The kinase reaction was done for 30 or 60 min at 30° C., and detection of leftover ATP was measured according to Promega's protocol. […] Fractional activities were obtained from normalized data. Non-linear regression (GraphPad Prism7) and a modified Morrison equation for tight binding was used to determine apparent Ki values for inhibitors, assuming no particular mode of inhibition. An orthogonal binding assay (LanthaScreen) was outsourced to ThermoFisher Scientific's SelectScreen Services to determine IC50 values.
(§3) One of the earliest compounds to be synthesized with favorable enzymatic activity towards JNK1 and JNK3 was CDD-2346. A KINOMEscan was performed for CDD-2346 to establish whether the selectivity of this chemical scaffold was suitable or required optimization. […] To confirm that the activity against each kinase was a true result and not a false positive, CDD-2346 was evaluated in kinase assays using ThermoFisher SelectScreen platform. The results from these assays are provided herein (Table 4). The important innovative steps described are the optimization of selectivity a) for JNK isoforms; b) for kinases considered “in-pathway”; and c) to avoid kinases considered “out-of-pathway”.

hVPS34 = biological target: T6, hVPS34 (Homo sapiens, UniProt Q8NEB9); assay: ThermoFisher SelectScreen, hVPS34; assay type: binding; settings: Table 4
T6 construct: purchased ThermoFisher (SelectScreen, outsourced service)
Procedure: as §2, §3

MEK4 = biological target: T7, MEK4 (Homo sapiens, UniProt P45985); assay: ThermoFisher SelectScreen, MEK4; assay type: binding
T7 construct: purchased ThermoFisher (SelectScreen)
T7 sequence (P45985 1-399): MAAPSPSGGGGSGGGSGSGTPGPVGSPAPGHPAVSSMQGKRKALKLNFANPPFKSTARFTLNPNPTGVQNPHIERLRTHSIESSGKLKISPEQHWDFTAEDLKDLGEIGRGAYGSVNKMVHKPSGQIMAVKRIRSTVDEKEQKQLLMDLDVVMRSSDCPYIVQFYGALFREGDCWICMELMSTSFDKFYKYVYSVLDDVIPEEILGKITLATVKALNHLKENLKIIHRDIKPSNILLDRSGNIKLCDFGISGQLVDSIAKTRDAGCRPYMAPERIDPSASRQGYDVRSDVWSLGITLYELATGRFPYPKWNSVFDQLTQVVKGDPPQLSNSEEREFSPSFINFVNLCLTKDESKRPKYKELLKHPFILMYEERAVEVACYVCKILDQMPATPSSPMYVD

CSNK1E = biological target: T8, CSNK1E (Homo sapiens, UniProt P49674); assay: ThermoFisher SelectScreen, CSNK1E; assay type: binding
T8 construct: purchased ThermoFisher (SelectScreen)

CSNK1D = biological target: T9, CSNK1D (Homo sapiens, UniProt P48730); assay: ThermoFisher SelectScreen, CSNK1D; assay type: binding
T9 construct: purchased ThermoFisher (SelectScreen)

CSNK1G1 = biological target: T10, CSNK1G1 (Homo sapiens, UniProt Q9HCP0); assay: ThermoFisher SelectScreen, CSNK1G1; assay type: binding; settings: Table 4
T10 construct: purchased ThermoFisher (SelectScreen)
Procedure: as §2, §3
No activity of CDD-2728 was detected for Atypical, Mutant, or Lipid kinases. To confirm CDD-2728 inhibition results in the KINOMEscan analysis, individual binding assays were performed on the kinases to which CDD-2728 bound using ThermoFisher SelectScreen.

CLK2 = biological target: T11, CLK2 (Homo sapiens, UniProt P49760); assay: ThermoFisher SelectScreen, CLK2; assay type: binding
T11 construct: purchased ThermoFisher (SelectScreen)
T11 sequence (P49760 whole entry): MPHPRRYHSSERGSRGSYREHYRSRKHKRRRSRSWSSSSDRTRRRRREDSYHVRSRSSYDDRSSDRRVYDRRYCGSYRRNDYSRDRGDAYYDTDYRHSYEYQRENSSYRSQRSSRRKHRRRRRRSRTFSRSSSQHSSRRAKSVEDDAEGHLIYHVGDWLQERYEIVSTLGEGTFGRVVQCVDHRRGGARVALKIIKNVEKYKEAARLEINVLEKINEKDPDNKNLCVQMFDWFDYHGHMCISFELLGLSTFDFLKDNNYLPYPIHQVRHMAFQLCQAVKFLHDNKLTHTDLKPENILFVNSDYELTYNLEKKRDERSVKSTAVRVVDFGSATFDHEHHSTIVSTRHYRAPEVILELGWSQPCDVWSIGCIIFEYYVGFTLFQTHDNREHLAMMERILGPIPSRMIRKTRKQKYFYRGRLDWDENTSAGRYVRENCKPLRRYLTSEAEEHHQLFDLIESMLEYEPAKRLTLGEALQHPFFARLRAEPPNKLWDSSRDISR

T1 sequence (P45983 whole entry): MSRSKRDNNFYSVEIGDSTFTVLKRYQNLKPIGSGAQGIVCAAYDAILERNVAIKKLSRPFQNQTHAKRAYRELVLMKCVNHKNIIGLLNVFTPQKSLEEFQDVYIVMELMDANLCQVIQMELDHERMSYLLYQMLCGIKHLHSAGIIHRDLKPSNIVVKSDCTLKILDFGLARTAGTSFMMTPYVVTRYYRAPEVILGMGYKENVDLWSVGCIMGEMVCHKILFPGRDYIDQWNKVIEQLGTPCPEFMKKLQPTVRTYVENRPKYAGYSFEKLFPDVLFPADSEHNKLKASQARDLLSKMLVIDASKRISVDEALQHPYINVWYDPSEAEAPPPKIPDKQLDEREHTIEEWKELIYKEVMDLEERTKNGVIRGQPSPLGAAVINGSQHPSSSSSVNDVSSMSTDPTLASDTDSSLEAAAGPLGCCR
T2 sequence (P53779 whole entry): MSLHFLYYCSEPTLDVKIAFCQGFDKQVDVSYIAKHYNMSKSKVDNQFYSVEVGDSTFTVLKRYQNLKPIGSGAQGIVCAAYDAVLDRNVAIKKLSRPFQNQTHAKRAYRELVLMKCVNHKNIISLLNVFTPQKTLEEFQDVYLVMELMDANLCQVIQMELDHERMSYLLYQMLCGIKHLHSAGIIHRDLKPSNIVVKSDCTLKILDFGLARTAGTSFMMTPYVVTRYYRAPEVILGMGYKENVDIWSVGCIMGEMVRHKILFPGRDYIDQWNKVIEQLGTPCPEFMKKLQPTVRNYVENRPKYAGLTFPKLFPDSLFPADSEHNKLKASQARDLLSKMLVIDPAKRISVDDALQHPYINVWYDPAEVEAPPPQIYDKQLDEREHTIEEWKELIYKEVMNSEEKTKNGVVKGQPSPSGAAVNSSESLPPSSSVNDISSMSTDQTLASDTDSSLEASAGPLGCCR
T3 sequence (P45984 whole entry): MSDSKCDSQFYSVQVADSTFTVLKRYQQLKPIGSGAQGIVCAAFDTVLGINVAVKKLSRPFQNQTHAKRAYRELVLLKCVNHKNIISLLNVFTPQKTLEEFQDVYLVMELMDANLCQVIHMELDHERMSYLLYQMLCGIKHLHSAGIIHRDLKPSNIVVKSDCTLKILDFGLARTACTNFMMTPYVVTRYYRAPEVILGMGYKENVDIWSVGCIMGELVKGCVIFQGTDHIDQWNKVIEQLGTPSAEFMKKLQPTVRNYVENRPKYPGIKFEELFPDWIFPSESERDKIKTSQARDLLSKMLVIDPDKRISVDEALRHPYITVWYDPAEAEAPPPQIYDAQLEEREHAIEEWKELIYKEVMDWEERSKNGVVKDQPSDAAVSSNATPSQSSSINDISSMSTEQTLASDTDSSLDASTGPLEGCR
T6 sequence (Q8NEB9 whole entry): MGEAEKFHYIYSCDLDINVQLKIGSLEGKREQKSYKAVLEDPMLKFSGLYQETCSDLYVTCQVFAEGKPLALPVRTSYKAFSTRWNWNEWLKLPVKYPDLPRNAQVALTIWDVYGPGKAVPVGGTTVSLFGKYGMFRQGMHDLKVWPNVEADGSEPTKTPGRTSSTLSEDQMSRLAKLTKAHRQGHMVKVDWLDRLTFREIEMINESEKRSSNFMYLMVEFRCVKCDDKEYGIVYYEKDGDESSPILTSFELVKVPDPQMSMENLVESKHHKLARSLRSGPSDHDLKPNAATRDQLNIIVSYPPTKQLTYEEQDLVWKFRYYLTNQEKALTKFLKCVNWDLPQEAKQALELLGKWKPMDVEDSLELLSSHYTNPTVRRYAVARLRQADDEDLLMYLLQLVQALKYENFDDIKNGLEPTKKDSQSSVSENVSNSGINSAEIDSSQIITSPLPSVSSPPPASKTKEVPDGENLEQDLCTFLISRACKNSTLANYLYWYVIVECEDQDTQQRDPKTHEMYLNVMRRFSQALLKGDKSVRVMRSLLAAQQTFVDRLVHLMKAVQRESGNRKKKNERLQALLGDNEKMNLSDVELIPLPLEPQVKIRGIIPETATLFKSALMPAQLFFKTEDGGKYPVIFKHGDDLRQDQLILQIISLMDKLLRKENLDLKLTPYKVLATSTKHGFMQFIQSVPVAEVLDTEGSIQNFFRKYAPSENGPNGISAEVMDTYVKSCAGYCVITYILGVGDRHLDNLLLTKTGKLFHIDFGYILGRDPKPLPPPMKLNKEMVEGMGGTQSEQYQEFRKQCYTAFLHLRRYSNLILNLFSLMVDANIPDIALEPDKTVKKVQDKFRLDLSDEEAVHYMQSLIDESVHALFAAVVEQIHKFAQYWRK
T4 sequence (O95835 whole entry): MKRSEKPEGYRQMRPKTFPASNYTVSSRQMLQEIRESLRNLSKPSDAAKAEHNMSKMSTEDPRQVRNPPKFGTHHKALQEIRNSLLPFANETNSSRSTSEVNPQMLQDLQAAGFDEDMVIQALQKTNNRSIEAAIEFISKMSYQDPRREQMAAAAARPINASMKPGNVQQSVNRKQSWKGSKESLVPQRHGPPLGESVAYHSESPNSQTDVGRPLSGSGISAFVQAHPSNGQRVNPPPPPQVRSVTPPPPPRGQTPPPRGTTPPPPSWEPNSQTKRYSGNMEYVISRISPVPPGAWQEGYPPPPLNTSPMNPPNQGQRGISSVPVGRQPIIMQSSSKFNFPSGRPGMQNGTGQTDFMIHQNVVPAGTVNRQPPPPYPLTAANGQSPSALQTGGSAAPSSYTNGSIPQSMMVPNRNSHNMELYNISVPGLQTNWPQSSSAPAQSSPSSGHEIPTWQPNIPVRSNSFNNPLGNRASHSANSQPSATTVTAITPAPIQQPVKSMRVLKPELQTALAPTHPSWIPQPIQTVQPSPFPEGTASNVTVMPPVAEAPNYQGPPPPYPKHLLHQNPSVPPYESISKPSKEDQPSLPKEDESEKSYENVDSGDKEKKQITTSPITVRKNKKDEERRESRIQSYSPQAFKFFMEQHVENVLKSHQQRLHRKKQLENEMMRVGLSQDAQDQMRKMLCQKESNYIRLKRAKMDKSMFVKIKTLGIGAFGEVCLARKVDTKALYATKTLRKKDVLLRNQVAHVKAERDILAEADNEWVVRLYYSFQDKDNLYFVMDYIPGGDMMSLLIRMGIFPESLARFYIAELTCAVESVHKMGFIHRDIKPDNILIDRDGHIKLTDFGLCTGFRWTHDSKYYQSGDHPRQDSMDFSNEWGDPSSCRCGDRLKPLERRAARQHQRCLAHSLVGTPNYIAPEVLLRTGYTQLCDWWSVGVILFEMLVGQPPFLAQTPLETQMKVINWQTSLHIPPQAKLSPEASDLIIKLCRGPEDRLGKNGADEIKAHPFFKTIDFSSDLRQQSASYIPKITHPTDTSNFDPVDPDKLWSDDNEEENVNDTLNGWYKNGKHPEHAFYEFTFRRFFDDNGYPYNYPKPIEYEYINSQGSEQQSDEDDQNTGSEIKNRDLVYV
T10 sequence (Q9HCP0 whole entry): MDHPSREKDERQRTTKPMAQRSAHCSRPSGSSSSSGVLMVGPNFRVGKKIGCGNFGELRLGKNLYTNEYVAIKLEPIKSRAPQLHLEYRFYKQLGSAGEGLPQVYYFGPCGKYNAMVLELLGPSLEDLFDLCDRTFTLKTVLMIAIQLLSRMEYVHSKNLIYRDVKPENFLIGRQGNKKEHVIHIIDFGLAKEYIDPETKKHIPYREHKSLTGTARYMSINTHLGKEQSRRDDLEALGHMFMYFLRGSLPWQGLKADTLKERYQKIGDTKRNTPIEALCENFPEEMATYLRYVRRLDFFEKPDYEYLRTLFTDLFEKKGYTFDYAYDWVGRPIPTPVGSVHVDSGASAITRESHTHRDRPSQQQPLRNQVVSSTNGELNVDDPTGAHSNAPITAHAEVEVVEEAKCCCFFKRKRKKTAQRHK
T9 sequence (P48730 whole entry): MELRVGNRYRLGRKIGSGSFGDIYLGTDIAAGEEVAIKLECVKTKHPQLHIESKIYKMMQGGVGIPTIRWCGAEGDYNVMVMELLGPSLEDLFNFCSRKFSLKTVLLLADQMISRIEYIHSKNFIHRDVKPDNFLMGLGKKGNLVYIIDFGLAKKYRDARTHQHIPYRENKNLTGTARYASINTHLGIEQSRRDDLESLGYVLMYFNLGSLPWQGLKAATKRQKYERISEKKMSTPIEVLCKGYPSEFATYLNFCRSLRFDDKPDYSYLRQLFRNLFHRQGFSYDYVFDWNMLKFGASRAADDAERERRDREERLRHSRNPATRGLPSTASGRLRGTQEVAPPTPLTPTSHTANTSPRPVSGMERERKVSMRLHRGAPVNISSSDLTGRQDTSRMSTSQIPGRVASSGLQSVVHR

SMILES | IC50 (JNK3 [2]) | IC50 (JNK1 [3]) | IC50 (JNK2 [4]) | Kd (JNK3 [9]; Table 3a, read-out: Kd JNK3) | half-life [10] | half-life [11] | Kd (JNK1 [12]) | Kd (JNK2 [13]; Table 3a, read-out: Kd JNK2) | solubility (Solubility) | Kd (JNK3 [14]) | Kd (hVPS34) | Kd (MEK4) | other results
CNC(=O)CN1[C@@H](CCNC(=O)OCc2ccccc2)CN(Cc2cccc3ccnn23)C[C@@H]1CC(=O)NCCCN(C)c1ccc(F)cc1 [CDD-2009, benzyl (2-((2S,6S)-6-(2-((3-((4-fluorophenyl)(methyl)amino)propyl)amino)-2-oxoethyl)-1-(2-(methylamino)-2-oxoethyl)-4-(pyrazolo[1,5-a]pyridin-7-ylmethyl)piperazin-2-yl)ethyl)carbamate] | – | – | – | – | – | – | – | – | – | – | – | – | JNK1 activity relative to CDD-1723 (fold less active) (JNK1 [1]; enantiomer comparison): 20 fold
CNC(=O)CN1[C@H](CCNC(=O)OCc2ccccc2)CN(Cc2cccc3ccnn23)C[C@H]1CC(=O)NCCCN(C)c1ccc(F)cc1 [CDD-1723, benzyl (2-((2R,6R)-6-(2-((3-((4-fluorophenyl)(methyl)amino)propyl)amino)-2-oxoethyl)-1-(2-(methylamino)-2-oxoethyl)-4-(pyrazolo[1,5-a]pyridin-7-ylmethyl)piperazin-2-yl)ethyl)carbamate] | 38 µM | 24 µM | 32 µM | – | – | – | – | – | – | – | – | – | JNK1 inhibition (JNK1 [1]; in words): good inhibition of JNK1
O[C@H]1CC[C@H](Nc2ncc3nc(Nc4c(F)cc(F)cc4F)n([C@H]4CCOC4)c3n2)CC1 [CDD-985, tanzisertib] | – | – | – | – | – | – | – | – | – | – | – | – | effect in preclinical IPF models and human IPF patients ([5]; IPF): reduced inflammation, EMT, and fibrosis; clinical safety ([5]; listed as TANZ): adverse liver effect; clinical safety ([5]; listed as Tanzisertib): deemed safe; Kd (Other MAPK): > 1000 nM; phosphorylation of Jun at pSer63 and pSer73 [6]: lack of efficacy; LATS1 inhibition in KINOMEscan (LATS1 [7]): weakly inhibited; LATS1 inhibition in Z'Lyte assay (LATS1 [8]): not confirmed
CNCc1ccc(NC(=O)c2ccn3ncc(-c4cnc(N)nc4)c3c2)cc1 [CDD-2387, 3-(2-aminopyrimidin-5-yl)-N-(4-((methylamino)methyl)phenyl)pyrazolo[1,5-a]pyridine-5-carboxamide] | – | – | – | 0.00844 ± 0.00066 µM | 2.01 h | 2.04 h | 0.00296 ± 0.00032 µM | 0.0288 ± 0.0018 µM | 254 µM (≈ 94.8 µg/mL) | 0.0084 µM | 0.13 µM | 0.262 µM | Kd (MEK5): 40.7 µM; Kd (CSNK1E): 2.66 µM

Continued, in another order:

IC50 (JNK3 [2]) | IC50 (JNK1 [3]) | IC50 (JNK2 [4]) | Kd (JNK3 [9]; Table 3a, read-out: Kd JNK3) | half-life [10] | half-life [11] | Kd (JNK1 [12]) | Kd (JNK2 [13]; Table 3a, read-out: Kd JNK2) | solubility (Solubility) | Kd (JNK3 [14]) | Kd (hVPS34) | Kd (MEK4) | SMILES | other results
4.8 µM | 2.2 µM | 2.3 µM | 0.00276 ± 0.00051 µM | 1.95 h | 6.81 h | 0.00115 ± 0.00028 µM | 0.00176 ± 0.00015 µM | 40.6 µM (≈ 16.7 µg/mL) | – | – | – | CNCc1ccc(NC(=O)c2cc3c(-c4cnc5[nH]ccc5c4)cccc3s2)cc1 [CDD-2575, N-(4-((methylamino)methyl)phenyl)-4-(1H-pyrrolo[2,3-b]pyridin-5-yl)benzo[b]thiophene-2-carboxamide] | effect on HepG2 cell viability / ATP consumption (HepG2 cells): non-specific decreases in cell viability were pronounced for CDD-2575 at 25 μM; also recorded: reduced ATP consumption
– | – | – | – | 0.26 h | 0.213 h | 0.00028 µM | – | 2.5 µM (≈ 1.28 µg/mL) | 0.00141 µM | 38 µM | 0.0602 µM | COc1ccc(NC(=O)c2cc3c(-c4cnc5[nH]ccc5c4)cccc3s2)cc1C(=O)N1CCCCC1 [CDD-2491, N-(4-methoxy-3-(piperidine-1-carbonyl)phenyl)-4-(1H-pyrrolo[2,3-b]pyridin-5-yl)benzo[b]thiophene-2-carboxamide] | Kd (JNK3 [9]): 0.00141 ± 0.00012 µM; Kd (CSNK1D): 8.35 µM; Kd (JNK2 [13]): 0.00043 ± 9e-05 µM; Kd (CSNK1G1): 95 µM; Kd (CLK2): 1.17 µM
